The values below are quoted from earlier work in US20090233840A1, “Modified Dynorphin Expression in Animals and Identification of Compounds for Treatment of Obesity and Diabetes” (priority 2004, published 2009).

For data set [1] the following is noted: not affected by naloxone or norBNI.
The test system of data set [2] is cultured cortical cells from Sprague Dawley rats. Conditions: comparable to that induced by NMDA; resistant to naloxone.
For data set [3] the following is noted: intracerebroventricularly.
For data set [4] the following is noted: administered ICV.

For the substance “Dyn A(1-13) (YGGFLRRIRPKLK; Dynorphin A(1-13); UniProt P01213 207-219, looked up, fragment)”, in data set [1], the “potency in writhing assay” value is reported as “very potent”.

Turning to dynorphin A (2-17), in data set [2], the intracellular calcium concentration entry was “increase in intracellular calcium concentration”. For the substance “dynorphin A (YGGFLRRIRPKLKWDNQ; Dynorphin A(1-17); UniProt P01213 207-223, looked up) [[Leu]-enkephalin-containing opioid peptide encoded by the preprodynorphin gene]”, the analgesic effect entry in data set [3] is recorded as “moderate analgesic effect”. Besides, in data set [4], the analgesic efficacy result is given as “ineffective”.
